In PubChem BioAssay AID2060504 (Molecular Pharmacology Branch, DTP, NCI, 2025):
pIC50: −log10 of the molar value.

System: 636577-100-R-J1-PDC complex spheroid viability
Assay: Anticancer human tumor 636577-100-R-J1-PDC patient-derived endometrial adenocarcinoma cell line growth inhibition [GQUAD]
Details: for pIC50: curve of first compound; for viability, T/C: stronger effect = lower value
In short: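 Tumor cells were grown as complex spheroids with HUVEC endothelial cells and mesenchymal stem cells as stroma. G-quadruplex stabilizers were combined with targeted agents over half-log dilutions from near the clinical Cmax, or from 10 microM.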

[1] = second compound 0.0316 µM, first compound 0.0316 µM
[2] = second compound 0.0316 µM, first compound 0.1 µM
[3] = second compound 0.0316 µM, first compound 0.316 µM
[4] = second compound 0.0316 µM, first compound 1 µM
[5] = second compound 0.0316 µM, first compound 3.16 µM
[6] = second compound 0.0316 µM, first compound 10 µM
[7] = second compound 0.1 µM, first compound 0.0316 µM
[8] = second compound 0.1 µM, first compound 0.1 µM
[9] = second compound 0.1 µM, first compound 0.316 µM
[10] = second compound 0.1 µM, first compound 1 µM
[11] = second compound 0.1 µM, first compound 3.16 µM
[12] = second compound 0.1 µM, first compound 10 µM
[13] = second compound 0.316 µM, first compound 0.0316 µM
[14] = second compound 0.316 µM, first compound 0.1 µM
[15] = second compound 0.316 µM, first compound 0.316 µM
[16] = second compound 0.316 µM, first compound 1 µM
[17] = second compound 0.316 µM, first compound 3.16 µM
[18] = second compound 0.316 µM, first compound 10 µM
[19] = second compound 1 µM, first compound 0.0316 µM
[20] = second compound 1 µM, first compound 0.1 µM
[21] = second compound 1 µM, first compound 0.316 µM
[22] = second compound 1 µM, first compound 1 µM
[23] = second compound 1 µM, first compound 3.16 µM
[24] = second compound 1 µM, first compound 10 µM
[25] = second compound 3.16 µM, first compound 0.0316 µM
[26] = second compound 3.16 µM, first compound 0.1 µM
[27] = second compound 3.16 µM, first compound 0.316 µM
[28] = second compound 3.16 µM, first compound 1 µM
[29] = second compound 3.16 µM, first compound 3.16 µM
[30] = second compound 3.16 µM, first compound 10 µM
[31] = second compound 10 µM, first compound 0.0316 µM
[32] = second compound 10 µM, first compound 0.1 µM
[33] = second compound 10 µM, first compound 0.316 µM
[34] = second compound 10 µM, first compound 1 µM
[35] = second compound 10 µM, first compound 3.16 µM
[36] = second compound 10 µM, first compound 10 µM
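Note: viability read after seven days of drug exposure.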
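Throughout, for viability, T/C: luminescence signal used as a proxy for viable cells; 100% = DMSO vehicle control wells.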

Question: What does the source list for `O=C(NO)c1cnc(N2CCN(S(=O)(=O)c3ccc4ccccc4c3)CC2)nc1` + Cc1[nH]c2ccc(F)cc2c1-c1nc2c3cccnc3c3ncccc3c2[nH]1?
Answer: pIC50 (second compound 0.0316 µM): 7.29; pIC50 (second compound 0.1 µM): 7.24; pIC50 (second compound 0.316 µM): 7.32; pIC50 (second compound 1 µM): 7.33; pIC50 (second compound 3.16 µM): > 7.50; pIC50 (second compound 10 µM): > 7.50; viability, T/C [1]: 69.7%; viability, T/C [2]: 21.1%; viability, T/C [3]: 11.5%; viability, T/C [4]: 7.28%; viability, T/C [5]: 0.23%; viability, T/C [6]: 0.1%; viability, T/C [7]: 68.2%; viability, T/C [8]: 33.2%; viability, T/C [9]: 15.2%; viability, T/C [10]: 5.55%; viability, T/C [11]: 0.5%; viability, T/C [12]: 0.09%; viability, T/C [13]: 60.2%; viability, T/C [14]: 31.4%; viability, T/C [15]: 17.2%; viability, T/C [16]: 7.41%; viability, T/C [17]: 1%; viability, T/C [18]: 0.08%; viability, T/C [19]: 60.2%; viability, T/C [20]: 29%; viability, T/C [21]: 16.6%; viability, T/C [22]: 6.03%; viability, T/C [23]: 1.47%; viability, T/C [24]: 0.08%; viability, T/C [25]: 25.8%; viability, T/C [26]: 19.7%; viability, T/C [27]: 17.1%; viability, T/C [28]: 7.07%; viability, T/C [29]: 2.05%; viability, T/C [30]: 0.09%; viability, T/C [31]: 29.5%; viability, T/C [32]: 22.4%; viability, T/C [33]: 14.3%; viability, T/C [34]: 6.09%; viability, T/C [35]: 2.61%; viability, T/C [36]: 0.11%

Question: How did the pIC50 (second compound 0.0316 µM) turn out when `C=CC(=O)N1CCN(c2nc(=O)n(-c3c(C)ccnc3C(C)C)c3nc(-c4c(O)cccc4F)c(F)cc23)C(C)C1` (stereo unspecified) + Cc1cnc(CNC(=O)c2c(=O)c3ccc(N4CCCN(C)CC4)nc3n3c2sc2ccccc23)cn1 was run?
Answer: The pIC50 was greater than 7.50.

Question: What about the pIC50 (second compound 0.1 µM) of the same compound?
Answer: Its pIC50 is greater than 7.50.

Question: And the pIC50 (second compound 0.316 µM)?
Answer: The pIC50 was greater than 7.50.

Question: And the pIC50 (second compound 1 µM)?
Answer: The pIC50 was greater than 7.50.

Question: What about the pIC50 (second compound 3.16 µM) of the same compound?
Answer: Its pIC50 is greater than 7.50.

Question: And the pIC50 (second compound 10 µM)?
Answer: The pIC50 was greater than 7.50.

Question: And the viability, T/C [1]?
Answer: The viability, T/C was 41.6%.

Question: What about the viability, T/C [2] of the same compound?
Answer: The viability, T/C was 45.5%.

Question: What about the viability, T/C [3] of the same compound?
Answer: Its viability, T/C is 43.1%.

Question: What about the viability, T/C [4] of the same compound?
Answer: The viability, T/C was 45.7%.

Question: What about the viability, T/C [5] of the same compound?
Answer: The viability, T/C was 51%.

Question: And the viability, T/C [6]?
Answer: The viability, T/C was 43%.

Question: What about the viability, T/C [7] of the same compound?
Answer: The viability, T/C was 28.8%.

Question: And the viability, T/C [8]?
Answer: The viability, T/C was 30.6%.

Question: What about the viability, T/C [9] of the same compound?
Answer: Its viability, T/C is 31.7%.

Question: And the viability, T/C [10]?
Answer: Its viability, T/C is 33.1%.

Question: What about the viability, T/C [11] of the same compound?
Answer: Its viability, T/C is 35.1%.

Question: What about the viability, T/C [12] of the same compound?
Answer: Its viability, T/C is 28.1%.

Question: What about the viability, T/C [13] of the same compound?
Answer: The viability, T/C was 24.7%.

Question: And the viability, T/C [14]?
Answer: Its viability, T/C is 25.1%.

Question: And the viability, T/C [15]?
Answer: The viability, T/C was 25.2%.

Question: And the viability, T/C [16]?
Answer: The viability, T/C was 29.9%.

Question: What about the viability, T/C [17] of the same compound?
Answer: Its viability, T/C is 31.1%.

Question: And the viability, T/C [18]?
Answer: The viability, T/C was 28%.

Question: And the viability, T/C [19]?
Answer: The viability, T/C was 24.6%.

Question: And the viability, T/C [20]?
Answer: The viability, T/C was 22.8%.

Question: And the viability, T/C [21]?
Answer: Its viability, T/C is 24.1%.

Question: And the viability, T/C [22]?
Answer: The viability, T/C was 25.4%.

Question: And the viability, T/C [23]?
Answer: The viability, T/C was 21.7%.

Question: What about the viability, T/C [24] of the same compound?
Answer: The viability, T/C was 25.7%.

Question: And the viability, T/C [25]?
Answer: Its viability, T/C is 24%.

Question: What about the viability, T/C [26] of the same compound?
Answer: The viability, T/C was 21.5%.

Question: What about the viability, T/C [27] of the same compound?
Answer: Its viability, T/C is 25.9%.

Question: And the viability, T/C [28]?
Answer: The viability, T/C was 27.9%.

Question: And the viability, T/C [29]?
Answer: The viability, T/C was 29.5%.

Question: What about the viability, T/C [30] of the same compound?
Answer: Its viability, T/C is 26.8%.

Question: What about the viability, T/C [31] of the same compound?
Answer: The viability, T/C was 21.5%.

Question: And the viability, T/C [32]?
Answer: Its viability, T/C is 22.9%.

Question: What about the viability, T/C [33] of the same compound?
Answer: Its viability, T/C is 23.9%.

Question: What about the viability, T/C [34] of the same compound?
Answer: Its viability, T/C is 22.1%.

Question: What about the viability, T/C [35] of the same compound?
Answer: Its viability, T/C is 26.7%.

Question: What about the viability, T/C [36] of the same compound?
Answer: Its viability, T/C is 25.2%.

Question: Which results are given for `COc1cc(C2c3cc4c(cc3C(OC3OC5COC(C)OC5C(O)C3O)C3COC(=O)C23)OCO4)cc(OC)c1O` (stereo unspecified) + CN(C)c1ccc(Nc2c3ccc(NC(=O)CCN4CCCC4)cc3nc3cc(NC(=O)CCN4CCCC4)ccc23)cc1?
Answer: pIC50 (second compound 0.0316 µM): 7.19; pIC50 (second compound 0.1 µM): 7.33; pIC50 (second compound 0.316 µM): 7.33; pIC50 (second compound 1 µM): 7.49; pIC50 (second compound 3.16 µM): > 7.50; pIC50 (second compound 10 µM): > 7.50; viability, T/C [1]: 77.5%; viability, T/C [2]: 33.3%; viability, T/C [3]: 20.7%; viability, T/C [4]: 17.2%; viability, T/C [5]: 15.7%; viability, T/C [6]: 13.8%; viability, T/C [7]: 61.4%; viability, T/C [8]: 27.9%; viability, T/C [9]: 18.8%; viability, T/C [10]: 19%; viability, T/C [11]: 18.5%; viability, T/C [12]: 14.6%; viability, T/C [13]: 57%; viability, T/C [14]: 37.1%; viability, T/C [15]: 22.3%; viability, T/C [16]: 17.7%; viability, T/C [17]: 15.7%; viability, T/C [18]: 12.9%; viability, T/C [19]: 50.4%; viability, T/C [20]: 30.6%; viability, T/C [21]: 18.5%; viability, T/C [22]: 20.1%; viability, T/C [23]: 16.2%; viability, T/C [24]: 13.8%; viability, T/C [25]: 27.6%; viability, T/C [26]: 20.5%; viability, T/C [27]: 19.6%; viability, T/C [28]: 17.4%; viability, T/C [29]: 16.8%; viability, T/C [30]: 13.1%; viability, T/C [31]: 5.34%; viability, T/C [32]: 4.62%; viability, T/C [33]: 4.08%; viability, T/C [34]: 4.02%; viability, T/C [35]: 2.93%; viability, T/C [36]: 2.35%
